# Data from patent publication US7572463B2, “Oral dosage forms” (Gruenenthal GmbH, priority 1999, dated 2009).
# Counter-ions that a name gives are not always drawn.
# Experiments:
# [1] = In-vitro release profile, European Pharmacopoeia basket apparatus, synthetic gastric then intestinal juices, HPLC; assay type: physicochemical
# Method: The release profiles of the oral dosage forms according to the invention were determined as follows:
# The dosage forms according to the invention were tested in the European Pharmacopoeia basket apparatus at a temperature of the released medium of 37±0.5° C., and at a rate of 50 rpm for 2 hours in 600 ml synthetic gastric juices without enzymes at pH 1.2. Following this, the dosage form was tested for a further 8 hours in 900 ml synthetic intestinal juices without enzymes at pH 7.2. The quantity of active substance released at a given time was determined in each case by means of HPLC. The values shown are average values based in each case on 3 samples. The invention will be explained below with reference to examples.
# (§1) The release profile was determined according to the method indicated above using the basket apparatus and this is reproduced in the following Table 1 and in FIG. 1 (as a percentage of the total dose, calculated as tramadol hydrochloride). By way of deviation from the conditions described above, the coated pellets were tested for 18 hours in synthetic intestinal juices without enzymes at pH 7.2.
# as §1, with “2” for “1”, “10” for “18”
# [2] = Water solubility of the active-substance salts (saturated solution in deionised water, HPLC); assay type: physicochemical; conditions: 25° C., 20 hours stirring
# Method: The water solubility of the active-substance salts was determined as follows:
# The quantity of the relevant active-substance salts required for this may optionally be determined by means of preliminary experiments.
# After the un-dissolved active-substance salt had been allowed to settle, the clear supernatant was removed by pipette and centrifuged at rate of at least 3000 rpm for five minutes.
# [3] = salt in the ethyl cellulose coated pellets of Example 2
# [4] = salt in the shellac coated pellets of Example 3, tests in synthetic intestinal juices
smiles,measurement,setting,value
"COc1cccc(C2(O)CCCCC2CN(C)C)c1.O=C(O)Cc1ccccc1Nc1c(Cl)cccc1Cl (stereo not drawn) [[1e-(m-methoxyphenyl)-2e-dimethylaminomethyl-cyclohexane-1(a)-ol]-[2-(2′,6′-dichloranilino)-phenylacetate]]",period over which tramadol is released in a retarded manner from the salt,[1]; [3],10 h
same,period over which tramadol is released in a retarded manner from the salt,[1]; [4],8 h
COc1cccc(C2(O)CCCCC2CN(C)C)c1 (stereo not drawn) [tramadol hydrochloride],solubility at 20 h,[2]; thermodynamic from solid,> 300 mg/mL
same,release of the active substance tramadol from the salt (in words),[1]; [3],released very rapidly
same,release of the active substance tramadol from the salt (in words),[1]; [4],released very rapidly
COc1cccc(C2(O)CCCCC2CN(C)C)c1.O=C1NS(=O)(=O)c2ccccc21 (stereo not drawn) [tramadolsaccharinate],water solubility,[2],approx. 20 mg/ml
